Reference: patent publication US8188055B2, “Inactivators of O6-alkylguanine-DNA alkyltransferase” (The United States of America, as represented by the …, priority 2007, dated 2012)
Where two headings read alike, the source gives them in different places.

How the values were obtained:
human alkyltransferase [1] = molecular target: T1, human alkyltransferase (Homo sapiens, UniProt P16455); details: previously published, read-out: ED50 for inactivation of alkyltransferase, cited from earlier work
T1 sequence (P16455 1-207): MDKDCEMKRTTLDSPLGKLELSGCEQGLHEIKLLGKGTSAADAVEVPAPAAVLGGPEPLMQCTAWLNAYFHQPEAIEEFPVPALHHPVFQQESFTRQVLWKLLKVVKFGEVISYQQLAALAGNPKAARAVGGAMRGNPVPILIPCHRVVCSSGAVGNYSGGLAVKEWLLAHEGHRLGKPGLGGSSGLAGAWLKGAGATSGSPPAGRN

human alkyltransferase [2] = molecular target: T1, human alkyltransferase; assay: Inactivation of purified recombinant human alkyltransferase in vitro; type: biochemical; details: for inactivation of alkyltransferase compared with parent compound: comparison in words
Protocol: ED50 values for the inactivation of purified human alkyltransferase in vitro are obtained as previously described (Nelson et al., J. Med. Chem. 2004, 47, 3887-3891 and Pegg et al., Biochem. Pharmacol. 1997, 53, 1559-1564). Purified recombinant human alkyltransferase is incubated with different concentrations of prodrugs in 0.5 mL of reaction buffer (50 mM Tris-HCl, pH 7.6, 0.1 mM EDTA, 5.0 mM dithiothreitol) containing 50 μg of hemocyanin or 10 μg calf thymus DNA for 30 min at 37° C.

[3] = Release of folate on incubation in neutral solution (ester stability); type: physicochemical; details: incubated in neutral solution
[4] = system: human tumor cell extracts; assay: Release of folate from esters by human tumor cell extracts; type: in vitro ADME; details: 200 μM ester, 2 mg lysate protein, pH 7.4, 37° C
Protocol: Cells are trypsinized, washed with Hank's balanced salt solution, counted and pelleted. On ice, the cell pellets are resuspended in 50 mM sodium phosphate, 5 mM DTT, pH 7.4 at a concentration of 10^8 cells/ml and disrupted by sonication. The sonicated cells are centrifuged at 12,000×g for 10 min and the supernatant is removed. Complete mini protease inhibitor (Roche, Mannheim Germany) is added as directed by the supplier. Lysate total protein concentration is determined, and the lysates are frozen until used at −20° C. Reactions (600 μL), containing one of the ester substrates (200 μM) and 2 mg of lysate protein in 50 mM phosphate buffer (pH 7.4) are incubated at 37° C. At various times 50 μL, are removed for analysis by HPLC. The amount of folic acid liberated is used to determine the extent of ester hydrolysis.
The rate of release of folate is about 2.2% per day from 1; 3.2% per day from 2; and 0.9% per day from 3. […] The extent of conversion to folate by human tumor cell extracts can vary slightly according to the cell type with MCF-7 cells showing the highest rate of conversion.

HT29 cells = assay: Sensitization of HT29 cells to killing by BCNU, colony-forming assay; type: cell-based; details: RPMI medium, drug 2 h prior to 40 μM BCNU for 2 h
Protocol: KB, HT29 and A549 cells are grown in RPMI 1640 medium or in RPMI medium lacking folate in the presence of 10% fetal bovine serum. The effect of alkyltransferase inactivators on the sensitivity of cells to BCNU is determined using a colony-forming assay (Wei et al., J. Med. Chem. 2005, 48, 256-261; Nelson et al., J. Med. Chem. 2004, 47, 3887-3891; Chae et al., J. Med. Chem. 1994, 37, 342-347; and Dolan et al., Proc. Natl. Acad. Sci. U.S.A. 1990, 87, 5368-5372). Cells are plated at a density of 10^6 in 25 cm^2 flasks and 24 h later are incubated with different concentrations of potential inhibitors for 2-8 h as indicated before exposure to 20 or 40 μM BCNU for 2 h as previously described (Wei et al., J. Med. Chem. 2005, 48, 256-261; Nelson et al., J. Med. Chem. 2004, 47, 3887-3891). After 2 h, the medium is replaced with fresh medium containing the drug but no BCNU and the cells are left to grow for an additional 16-18 h. The cells are then replated at densities of 250-1000 cells per 25 cm^2 flask and grown for 8 days until discrete colonies have formed. The colonies are washed with 0.9% saline solution, stained with 0.5% crystal violet in ethanol, and counted.

[5] = +DNA (10 μg calf thymus DNA), 30 min at 37° C, read-out: ED50 for inactivation of alkyltransferase
[6] = absence of DNA, read-out: ED50 value in the absence of DNA

SMILES | EC50 (human alkyltransferase [1]; +DNA) | EC50 (human alkyltransferase [1]; −DNA) | EC50 (human alkyltransferase [2]; [5]) | inactivation of alkyltransferase compared with parent compound (human alkyltransferase [2]) | EC50 (human alkyltransferase [2]; −DNA (hemocyanin), 30 min at 37° C, read-out: ED50 for inactivation of alkyltransferase) | rate of release of folate [3] | release of folate by extracts from human tumor cells [4] | ED50 lower than O^6-benzylguanine (human alkyltransferase [2]; absence of DNA) | ED50 lower than the parent O^6-benzyl-2′-deoxyguanosine (human alkyltransferase [2]; absence of DNA) | EC50 (human alkyltransferase [2]; [6]) | sensitization of HT29 cells to killing by BCNU (HT29 cells) | increase of ED50 when DNA is present (human alkyltransferase [2]; +DNA versus −DNA)
Nc1nc(OCc2ccccc2)c2ncn([C@H]3C[C@H](O)[C@@H](CO)O3)c2n1 [O^6-benzyl-2′-deoxyguanosine] | 40000 nM | 2000 nM | – | – | – | – | – | – | – | – | – | –
Nc1nc(OCc2ccc(COC(=O)CC[C@H](NC(=O)c3ccc(NCc4cnc5nc(N)[nH]c(=O)c5n4)cc3)C(=O)O)cc2)c2nc[nH]c2n1 [Compound 3, O^6-[4-[(γ-folyl)-oxymethyl]benzyl]guanine] | – | – | 240 nM | slightly less effective than the free base parent | 700 nM | ~0.9 % per day | able to release folate | – | – | – | – | –
Nc1nc(OCc2ccccc2)c2ncn([C@H]3CC(OC(=O)CC[C@H](NC(=O)c4ccc(NCc5cnc6nc(N)[nH]c(=O)c6n5)cc4)C(=O)O)[C@@H](CO)O3)c2n1 (stereo partly shown) [Compound 1, O^6-Benzyl-3′-O-[γ-folyl]-2′-deoxyguanosine] | – | – | 680 nM | more active than O^6-benzyl-2′-deoxyguanosine itself | – | about 2.2 % per day | able to release folate | 10 times | 100 times | 16 nM | able to sensitize HT29 cells to killing by BCNU | –
Nc1nc(OCc2ccccc2)c2ncn([C@H]3CC(O)[C@@H](COC(=O)CC[C@H](NC(=O)c4ccc(NCc5cnc6nc(N)[nH]c(=O)c6n5)cc4)C(=O)O)O3)c2n1 (stereo partly shown) [Compound 2, O^6-Benzyl-5′-O-[γ-folyl]-2′-deoxyguanosine] | – | – | 3060 ± 180 nM | more active than O^6-benzyl-2′-deoxyguanosine itself | – | ~3.2 % per day | able to release folate | – | – | 640 nM | able to sensitize HT29 cells to killing by BCNU | 5 fold
